# Assay results from patent publication US6355799B1, “Substituted benzene compounds, process for their preparation, and herbicidal and defoliant compositions containing them” (ISK Americas Incorporated, priority 1997, dated 2002).
# Legend:
# Format in all cases: in vivo
# [1] = system: common ragweed (Ambrosia artemisizfolia L., AMBEL); assay: Post-emerge test, greenhouse herbicide activity screening; settings: post-emerge, 14 days after application, rating scale 0-100
# Method in brief: (§1)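 Herbicidal damage is scored 0 (none) to 100 (complete plant death) two weeks after a simulated field spray. Rates span 15–1000 g ai/ha, delivered in acetone at 187 l/ha. For post-emergence treatments, plants have 2–3 leaves and the spray carries 0.25% v/v non-ionic surfactant.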
# [2] = system: velvetleaf (Abutilon theophrasti, ABUTH); assay: as above; settings: post-emerge, 14 days after application, rating scale 0-100
# Method in brief: as §1
# [3] = system: sicklepod (Cassia obtusifolia, CASOB); assay: as above; settings: post-emerge, 14 days after application, rating scale 0-100
# Method in brief: as §1
# [4] = system: large crabgrass (Digitaria sanguinalis, DIGSA); assay: as above; settings: post-emerge, 14 days after application, rating scale 0-100
# Method in brief: as §1
# [5] = system: ivyleaf morningglory (Ipomoea hederacea, IPOHE); assay: as above; settings: post-emerge, 14 days after application, rating scale 0-100
# Method in brief: as §1
# [6] = system: redroot pigweed (Amaranthus retroflexus, AMARE); assay: as above; settings: post-emerge, 14 days after application, rating scale 0-100
# Method in brief: as §1
# [7] = system: barnyardgrass (Echinochloa crus-galli, ECHCG); assay: as above; settings: post-emerge, 14 days after application, rating scale 0-100
# Method in brief: as §1
# [8] = system: johnsongrass (Sorghum halepense, SORHA); assay: as above; settings: post-emerge, 14 days after application, rating scale 0-100
# Method in brief: as §1
# [9] = system: green foxtail (Setaria viridis, SETVI); assay: as above; settings: post-emerge, 14 days after application, rating scale 0-100
# Method in brief: as §1
# [10] = system: lambsquarters (Chenopodium album, CHEAL); assay: as above; settings: post-emerge, 14 days after application, rating scale 0-100
# Method in brief: as §1
# [11] = system: field corn (Zea mays L., var. Dekalb 535, CORN); assay: Pre-emerge test, crop safety; settings: rated 14 days after application, 0 = no damage, 100 = complete death
# Method in brief: (§2)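 Fourteen days after spraying, crop and weed injury was graded visually from 0, no effect, to 100, every plant dead. Test substances were dissolved in acetone and applied at 15–1000 g ai/ha with a flat-fan nozzle. Application was either pre-emergence, one day after sowing, or post-emergence at the 2–3 leaf stage.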
# [12] = system: upland rice (Oryza sp., var. Tebonnet, RICE); assay: Pre-emerge test, crop safety; settings: rated 14 days after application, 0 = no damage, 100 = complete death
# Method in brief: as §2
# [13] = system: field corn (Zea mays L., var. Dekalb 535, CORN); assay: Post-emerge test, crop safety; settings: post-emerge, 14 days after application, rating scale 0-100
# Method in brief: (§3)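 Applied at 15–1000 g ai/ha from acetone in 187 l/ha spray volume. Post-emergence applications included 0.25% v/v non-ionic surfactant and reached plants sown 8–21 days before. Pre-emergence applications were incorporated by surface watering. Efficacy or crop damage was rated on a 0–100 scale after 14 days.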
# [14] = system: upland rice (Oryza sp., var. Tebonnet, RICE); assay: Post-emerge test, crop safety; settings: post-emerge, 14 days after application, rating scale 0-100
# Method in brief: as §3
# [15] = system: common ragweed (Ambrosia artemisizfolia L., AMBEL); assay: Pre-emerge test, greenhouse herbicide activity screening; settings: rated 14 days after application, 0 = no damage, 100 = complete death
# Method in brief: as §3
# [16] = system: velvetleaf (Abutilon theophrasti, ABUTH); assay: as above; settings: rated 14 days after application, 0 = no damage, 100 = complete death
# Method in brief: as §3
# [17] = system: sicklepod (Cassia obtusifolia, CASOB); assay: as above; settings: rated 14 days after application, 0 = no damage, 100 = complete death
# Method in brief: as §3
# [18] = system: large crabgrass (Digitaria sanguinalis, DIGSA); assay: as above; settings: rated 14 days after application, 0 = no damage, 100 = complete death
# Method in brief: as §3
# [19] = system: ivyleaf morningglory (Ipomoea hederacea, IPOHE); assay: as above; settings: rated 14 days after application, 0 = no damage, 100 = complete death
# Method in brief: as §3
# [20] = system: barnyardgrass (Echinochloa crus-galli, ECHCG); assay: as above; settings: rated 14 days after application, 0 = no damage, 100 = complete death
# Method in brief: as §3
# [21] = system: johnsongrass (Sorghum halepense, SORHA); assay: as above; settings: rated 14 days after application, 0 = no damage, 100 = complete death
# Method in brief: as §3
# [22] = system: green foxtail (Setaria viridis, SETVI); assay: as above; settings: rated 14 days after application, 0 = no damage, 100 = complete death
# Method in brief: as §3
# [23] = system: lambsquarters (Chenopodium album, CHEAL); assay: as above; settings: rated 14 days after application, 0 = no damage, 100 = complete death
# Method in brief: as §3
# [24] = system: redroot pigweed (Amaranthus retroflexus, AMARE); assay: as above; settings: rated 14 days after application, 0 = no damage, 100 = complete death
# Method in brief: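 Plants grown in 10 cm pots of sandy loam mix received acetone-dissolved compounds through a moving flat-fan nozzle. Doses ranged from 15 to 1000 g ai/ha. Pre-emerge pots were seeded one day earlier, post-emerge pots 8–21 days earlier. Fourteen days on, each pot was graded 0–100 for damage.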
structure (smiles),measurement,setting,value
COc1c(Cl)cc(F)c(-n2c(=O)cc(C(F)(F)F)n(C)c2=O)c1NC(=O)c1ccc(Cl)c(Cl)c1 [2-59],phytotoxicity rating AMBEL,[1]; 63 g ai/ha,70
same,phytotoxicity rating AMBEL,[1]; 250 g ai/ha,100
same,phytotoxicity rating ABUTH,[2]; 63 g ai/ha,100
same,phytotoxicity rating ABUTH,[2]; 250 g ai/ha,100
same,phytotoxicity rating CASOB,[3]; 63 g ai/ha,90
same,phytotoxicity rating CASOB,[3]; 250 g ai/ha,100
same,phytotoxicity rating DIGSA,[4]; 63 g ai/ha,0
same,phytotoxicity rating DIGSA,[4]; 250 g ai/ha,30
same,phytotoxicity rating IPOHE,[5]; 63 g ai/ha,100
same,phytotoxicity rating IPOHE,[5]; 250 g ai/ha,100
same,phytotoxicity rating AMARE,[6]; 63 g ai/ha,100
same,phytotoxicity rating AMARE,[6]; 250 g ai/ha,100
same,phytotoxicity rating ECHCG,[7]; 63 g ai/ha,0
same,phytotoxicity rating ECHCG,[7]; 250 g ai/ha,30
same,phytotoxicity rating SORHA,[8]; 63 g ai/ha,30
same,phytotoxicity rating SORHA,[8]; 250 g ai/ha,65
same,phytotoxicity rating SETVI,[9]; 63 g ai/ha,20
same,phytotoxicity rating SETVI,[9]; 250 g ai/ha,20
same,phytotoxicity rating CHEAL,[10]; 63 g ai/ha,100
same,phytotoxicity rating CHEAL,[10]; 250 g ai/ha,100
same,"Pre-emerge phytotoxicity rating (0-100), crop damage, CORN",[11]; 63 g ai/ha,10
same,"Pre-emerge phytotoxicity rating (0-100), crop damage, CORN",[11]; 250 g ai/ha,70
same,"Pre-emerge phytotoxicity rating (0-100), crop damage, RICE",[12]; 63 g ai/ha,25
same,"Pre-emerge phytotoxicity rating (0-100), crop damage, RICE",[12]; 250 g ai/ha,75
same,phytotoxicity rating CORN,[13]; 63 g ai/ha,70
same,phytotoxicity rating CORN,[13]; 250 g ai/ha,80
same,phytotoxicity rating RICE,[14]; 63 g ai/ha,70
same,phytotoxicity rating RICE,[14]; 250 g ai/ha,80
same,"Pre-emerge Herbicidal Activity, phytotoxicity rating (0-100), AMBEL",[15]; 63 g ai/ha,50
same,"Pre-emerge Herbicidal Activity, phytotoxicity rating (0-100), AMBEL",[15]; 250 g ai/ha,90
same,"Pre-emerge Herbicidal Activity, phytotoxicity rating (0-100), ABUTH",[16]; 63 g ai/ha,100
same,"Pre-emerge Herbicidal Activity, phytotoxicity rating (0-100), ABUTH",[16]; 250 g ai/ha,100
same,"Pre-emerge Herbicidal Activity, phytotoxicity rating (0-100), CASOB",[17]; 63 g ai/ha,30
same,"Pre-emerge Herbicidal Activity, phytotoxicity rating (0-100), CASOB",[17]; 250 g ai/ha,100
same,"Pre-emerge Herbicidal Activity, phytotoxicity rating (0-100), DIGSA",[18]; 63 g ai/ha,70
same,"Pre-emerge Herbicidal Activity, phytotoxicity rating (0-100), DIGSA",[18]; 250 g ai/ha,100
same,"Pre-emerge Herbicidal Activity, phytotoxicity rating (0-100), IPOHE",[19]; 63 g ai/ha,20
same,"Pre-emerge Herbicidal Activity, phytotoxicity rating (0-100), IPOHE",[19]; 250 g ai/ha,100
same,"Pre-emerge Herbicidal Activity, phytotoxicity rating (0-100), ECHCG",[20]; 63 g ai/ha,40
same,"Pre-emerge Herbicidal Activity, phytotoxicity rating (0-100), ECHCG",[20]; 250 g ai/ha,9
same,"Pre-emerge Herbicidal Activity, phytotoxicity rating (0-100), SORHA",[21]; 63 g ai/ha,40
same,"Pre-emerge Herbicidal Activity, phytotoxicity rating (0-100), SORHA",[21]; 250 g ai/ha,90
same,"Pre-emerge Herbicidal Activity, phytotoxicity rating (0-100), SETVI",[22]; 63 g ai/ha,100
same,"Pre-emerge Herbicidal Activity, phytotoxicity rating (0-100), SETVI",[22]; 250 g ai/ha,100
same,"Pre-emerge Herbicidal Activity, phytotoxicity rating (0-100), CHEAL",[23]; 63 g ai/ha,100
same,"Pre-emerge Herbicidal Activity, phytotoxicity rating (0-100), CHEAL",[23]; 250 g ai/ha,100
same,"Pre-emerge Herbicidal Activity, phytotoxicity rating (0-100), AMARE",[24]; 63 g ai/ha,100
same,"Pre-emerge Herbicidal Activity, phytotoxicity rating (0-100), AMARE",[24]; 250 g ai/ha,100
